Measured values published in patent publication US20230263822A1, “MODULATION OF FACTOR 11 EXPRESSION” (Ionis Pharmaceuticals, Inc., priority 2008, published 2023).

Test: Hematology assays in cynomolgus monkeys (Example 45)
Type: in vivo
Conditions: for MCH / MCHC / MCV / RBC count / WBC count / hematocrit / hemoglobin: escalating dose regimen
Method in brief: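 Cynomolgus monkeys (2 male, 3 female per group) dosed subcutaneously with antisense oligonucleotide or PBS, escalating 5, 10, then 25 mg/kg two to three times weekly over 12 weeks; one chronic group held at 10 mg/kg from week 4. Blood sampled weekly; necropsy on day 85.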

## ISIS 416864: MOE gapmer, nucleobases 1275 to 1318 of SEQ ID NO: 1 (Table 8) (antisense GGCAGCGGACGGCATTGGTG; MOE gapmer, wing and gap sizes not given here)
Day 64
  MCH: 23 pg
Day 71
  MCH: 23 pg
Day 78
  MCH: 23 pg
Day 85
  MCH: 23 pg
Day 8
  basophils: 0.2%
  eosinophils: 0.7%
  lymphocytes: 45%
  monocytes: 2.1%
  neutrophils: 52%
  platelet count: 438000 µL⁻¹
  reticulocytes: 0.8%
  MCH: 23 pg
  MCHC: 29 g/dL
  MCV: 78 fL
  RBC count: 5.7e+06 µL⁻¹
  WBC count: 11000 µL⁻¹
  hematocrit: 44%
  hemoglobin: 12.7 g/dL
Day 15
  basophils: 0.2%
  eosinophils: 0.5%
  lymphocytes: 38%
  monocytes: 2.4%
  neutrophils: 59%
  platelet count: 439000 µL⁻¹
  reticulocytes: 0.8%
  MCH: 23 pg
  MCHC: 30 g/dL
  MCV: 74 fL
  RBC count: 5.7e+06 µL⁻¹
  WBC count: 10000 µL⁻¹
  hematocrit: 42%
  hemoglobin: 12.8 g/dL
Day 22
  basophils: 0.2%
  eosinophils: 0.9%
  lymphocytes: 37%
  monocytes: 2.8%
  neutrophils: 59%
  platelet count: 364000 µL⁻¹
  reticulocytes: 0.9%
  MCH: 23 pg
  MCHC: 29 g/dL
  MCV: 79 fL
  RBC count: 5.3e+06 µL⁻¹
  WBC count: 10000 µL⁻¹
  hematocrit: 42%
  hemoglobin: 12.1 g/dL
Day 29
  basophils: 0.3%
  eosinophils: 0.9%
  lymphocytes: 51%
  monocytes: 3.4%
  neutrophils: 44%
  platelet count: 397000 µL⁻¹
  reticulocytes: 1.3%
  MCH: 23 pg
  MCHC: 29 g/dL
  MCV: 80 fL
  RBC count: 5.3e+06 µL⁻¹
  WBC count: 10000 µL⁻¹
  hematocrit: 43%
  hemoglobin: 12.1 g/dL
Day 36
  basophils: 0.3%
  eosinophils: 0.6%
  lymphocytes: 38%
  monocytes: 2.3%
  neutrophils: 58%
  platelet count: 428000 µL⁻¹
  reticulocytes: 1.3%
  MCH: 23 pg
  MCHC: 30 g/dL
  MCV: 76 fL
  RBC count: 5.6e+06 µL⁻¹
  WBC count: 10000 µL⁻¹
  hematocrit: 42%
  hemoglobin: 12.5 g/dL
Day 43
  basophils: 0.4%
  eosinophils: 0.6%
  lymphocytes: 39%
  monocytes: 2.1%
  neutrophils: 57%
  platelet count: 351000 µL⁻¹
  reticulocytes: 1.1%
  MCH: 22 pg
  MCHC: 29 g/dL
  MCV: 77 fL
  RBC count: 5.5e+06 µL⁻¹
  WBC count: 10000 µL⁻¹
  hematocrit: 42%
  hemoglobin: 12.2 g/dL
Day 50
  basophils: 0.4%
  eosinophils: 0.7%
  lymphocytes: 46%
  monocytes: 2.9%
  neutrophils: 49%
  platelet count: 419000 µL⁻¹
  reticulocytes: 1.3%
  MCH: 22 pg
  MCHC: 28 g/dL
  MCV: 79 fL
  RBC count: 5.6e+06 µL⁻¹
  WBC count: 12000 µL⁻¹
  hematocrit: 44%
  hemoglobin: 12.1 g/dL
Day 57
  basophils: 0.3%
  eosinophils: 0.4%
  lymphocytes: 39%
  monocytes: 2.4%
  neutrophils: 57%
  platelet count: 409000 µL⁻¹
  reticulocytes: 1.0%
  MCH: 23 pg
  MCHC: 29 g/dL
  MCV: 77 fL
  RBC count: 5.5e+06 µL⁻¹
  WBC count: 12000 µL⁻¹
  hematocrit: 42%
  hemoglobin: 12.3 g/dL
Day 64
  basophils: 0.4%
  eosinophils: 0.7%
  lymphocytes: 46%
  monocytes: 2.8%
  neutrophils: 49%
  platelet count: 383000 µL⁻¹
  reticulocytes: 0.8%
  MCHC: 29 g/dL
  MCV: 75 fL
  RBC count: 5.6e+06 µL⁻¹
  WBC count: 11000 µL⁻¹
  hematocrit: 42%
  hemoglobin: 12.1 g/dL
Day 71
  basophils: 0.4%
  eosinophils: 1.1%
  lymphocytes: 52%
  monocytes: 3.7%
  neutrophils: 42%
  platelet count: 394000 µL⁻¹
  reticulocytes: 1.0%
  MCHC: 28 g/dL
  MCV: 79 fL
  RBC count: 5.6e+06 µL⁻¹
  WBC count: 14000 µL⁻¹
  hematocrit: 44%
  hemoglobin: 12.2 g/dL
Day 78
  basophils: 0.3%
  eosinophils: 1.2%
  lymphocytes: 46%
  monocytes: 3.7%
  neutrophils: 48%
  platelet count: 366000 µL⁻¹
  reticulocytes: 1.2%
  MCHC: 30 g/dL
  MCV: 74 fL
  RBC count: 5.3e+06 µL⁻¹
  WBC count: 11000 µL⁻¹
  hematocrit: 39%
  hemoglobin: 11.9 g/dL
Day 85
  basophils: 0.4%
  eosinophils: 1.6%
  lymphocytes: 54%
  monocytes: 3.7%
  neutrophils: 39%
  platelet count: 387000 µL⁻¹
  reticulocytes: 1.5%
  MCHC: 30 g/dL
  MCV: 74 fL
  RBC count: 5.4e+06 µL⁻¹
  WBC count: 12000 µL⁻¹
  hematocrit: 40%
  hemoglobin: 12.3 g/dL
Day −5
  basophils: 0.2%
  eosinophils: 0.9%
  lymphocytes: 44%
  monocytes: 3.3%
  neutrophils: 51%
  platelet count: 456000 µL⁻¹
  reticulocytes: 0.9%
  MCH: 23 pg
  MCHC: 29 g/dL
  MCV: 79 fL
  RBC count: 5.6e+06 µL⁻¹
  WBC count: 13000 µL⁻¹
  hematocrit: 44%
  hemoglobin: 13.0 g/dL
Day −14
  basophils: 0.2%
  eosinophils: 1.0%
  lymphocytes: 42%
  monocytes: 2.8%
  neutrophils: 53%
  platelet count: 434000 µL⁻¹
  reticulocytes: 0.9%
  MCH: 23 pg
  MCHC: 29 g/dL
  MCV: 79 fL
  RBC count: 5.5e+06 µL⁻¹
  WBC count: 13000 µL⁻¹
  hematocrit: 43%
  hemoglobin: 12.7 g/dL
